Converted amounts (≈) assume the structure as drawn. “Also recorded” adds a separate entry of the source.
Tests used:
[1] = test system: Mycobacterium tuberculosis H37Ra; test: Anti-mycobacterial activity (XTT-menadione assay); type: cell-based; details: for inhibition at 100 µg/mL: read-out: % inhibition at 100 μg/ml against M. tuberculosis (footnote c); for antimycobacterial activity against M. tuberculosis (in words): in vitro; for IC90: concentration exhibiting 90% inhibition against growth, H37Ra, 8th day of incubation, read-out: IC90 value determined against M. tuberculosis
Experimental: All the isolated compounds and whole acetone extract were tested for their in vitro effect against Mycobacterium tuberculosis H37Ra culture maintained in-house.
M. tuberculosis, H37Ra (ATCC 25177) cells were grown to logarithmic phase (O.D.595˜1.0) in a defined medium (M. pheli medium) under aerobic conditions in a shaker incubator (Thermo Electron Corporation Model 481) maintained at 150 rpm and 37° C. After growth, the culture was sonicated for 2 min using a water bath sonicator. Sonicated cells were used for inoculation in micro plate wells. 250 μl of the culture containing ˜10 5 cells/ml was added to each well of 96 well plates. 2.5 μl of the test samples dissolved in DMSO was added to the wells to attain a final concentration of 100 ug/ml respectively for the preliminary screening. Dose response curve of the active compounds was carried out by making serial dilutions of the test samples. Then, the plate was incubated in a CO2 incubator at 37° C. The plate was taken out on the 8th day of incubation to measure the viable cell counts. The optical density of the culture was measured before addition of XTT at 470 nm which was served as a blank for the MIC calculations. 200 μM XTT was added and incubated for 20 min at 37° C. after shaking for 1 min. After 20 min of incubation, 60 μM menadione was added and incubated at 37° C. for 40 min after mixing of 1 min. Finally, the optical density of the suspension was measured at 470 nm by using microplate reader.

[2] = test system: THP-1 (Human acute leukemia cells) cell lines; test: Cytotoxicity studies (MTT assay); type: cell-based; details: for inhibition at 100 µg/mL: Homo sapiens, THP-1, 100 μg/ml, 72 h, MTT, read-out: % Inhibition on Thp-1 cell line at 100 μg/ml
Experimental: Compounds 3 was tested at IC90 values and also at higher concentration, 100 μg/ml, for their in vitro cytotoxicity against THP-1 (Human acute leukemia cells) cell lines procured from National Cell Repository, India.
About 10,000 cells were taken per well in 96-well tissue culture plates and treated with compound 3 at IC90 values and also at higher concentration, 100 μg/ml for 72 h. Vehicle control (DMSO, 1%) and positive control (Paclitaxel, 100 μg/ml) were run simultaneously. Cell proliferation was assessed with 10 μl from 5 mg/ml stock solution of tetrazolium salt (MTT) dissolved in cell culture medium and subsequently incubated for additional 1 h at 37° C., 5% of CO2 and 95% humidity in incubator. The violet coloured formazan crystals formed were solubilized in 200 μl of isopropanol and incubated for another 4 h. The optical density was read on a micro plate reader (Spectramax plus384 plate reader, Molecular Devices Inc) at 490 nm filter against a blank prepared from cell-free wells. Absorbance given by cells treated with the carrier DMSO alone was taken as 100% cell growth. All experiments were performed in triplicate, and the quantitative value was expressed as the average±standard deviation.

[3] = Mycobacterium tuberculosis, H37RA

Structure (SMILES)	inhibition at 100 µg/mL [1, 3]	antimycobacterial activity against M. tuberculosis (in words) [1]	IC90 ([1]; Mycobacterium tuberculosis)	inhibition at 100 µg/mL [2]	further results
C=C[C@@]1(C)CC[C@@]2(O)[C@]3(CC[C@@]4(OO3)C(C)(C)CCC[C@]24C)C1 [Compound 1, pimarane-5,8-peroxide]	42.9%	effective	–	–	–
C=C[C@@]1(C)CC[C@H]2[C@@](O)(C[C@@H](O)[C@@]3(O)C(C)(C)CCC[C@]23C)C1 [Compound 2, pimarane-triol]	–	effective	20 µg/mL (≈ 62 µM)	–	–
C=C[C@@]1(C)CC[C@@]2(O)[C@@](O)(C[C@@H](O)[C@@]3(O)C(C)(C)CCC[C@]23C)C1 [Compound 3, pimarane-tetrol]	35%	effective	–	57.2%	anti-cancer activity against THP-1 cell lines (in words) ([2]; in vitro): showed anti-cancer activity; also recorded: comparable to that of known standard drug, paclitaxel
C=CCc1ccc(O)c(O)c1 [Compound 4, Hydroxychavicol]	–	effective	–	–	IC50 ([1]; Mycobacterium tuberculosis, H37RA, read-out: IC50 against growth of M. tuberculosis (footnote d)): 12.5 µg/mL (≈ 83.2 µM)
NNC(=O)c1ccncc1 [Isoniazid, reference compound]	–	–	0.05 ± 0.003 µg/mL (≈ 0.365 µM)	–	–
CC(=O)O[C@H]1C(=O)[C@@]2(C)[C@H]([C@H](OC(=O)c3ccccc3)[C@]3(O)C[C@H](OC(=O)[C@H](O)[C@@H](NC(=O)c4ccccc4)c4ccccc4)C(C)=C1C3(C)C)[C@]1(OC(C)=O)CO[C@@H]1C[C@@H]2O [Paclitaxel, reference compound]	–	–	–	61%	–

From US9024043B2, “Pimarane diterpenes from Anisochilus verticillatus” (Council of Scientific & Industrial Research, priority 2011, dated 2015)
